Data published in publication PMC11811597, “Phenomics‐Based Discovery of Novel Orthosteric Choline Kinase Inhibitors” (Angewandte Chemie (International Ed. in English), 2025).
“Also recorded” adds a separate entry of the source.

Key:
GVINP1 = molecular target: T1, GVINP1 (Homo sapiens, UniProt Q7Z2Y8); test: PISA thermal profiling, intact HepG2 cells; type: cell-based; details: 30 µM, 60 min, n=3
T1 construct: endogenous in cells; host or cells: intact HepG2 cells
Text: To further corroborate our findings, we next performed the proteome integral solubility alteration (PISA) assay in HepG2 human hepatoma cells that express high levels of CHKA. Conceptually building on the cellular thermal shift assay (CETSA) with mass spectrometry based detection,[19, 20] PISA leverages compound‐mediated stabilisation of target proteins without the need of chemical modification in intact cells. […]
carried out using REFMAC[9] and COOT,[10] and concluded when no improvements resulted for Rfree and Rwork values, and when density maps indicated no further changes were justified.
Choline Coupled Enzymatic Assay
CHKA (120 ng, 24 µg/ml) was arrayed (5 µL) into a 96 well semi-skirted real time PCR plate. 4-fold dilution series and vehicle controls (0.5% DMSO) were prepared in a separate plate. A further DMSO control was included for use with a no protein well control. […]
After mixing, bubbles were removed by centrifugation (1000 × g, 1 min) and absorbance read at 340 nm on a PheraSTAR FSX (BMG Labtech), reading every minute for 10 min. […]
by centrifugation at 30,000 × g for 20 min at 4 °C. The soluble fractions were collected to fresh tubes and further processed to be analysed with mass spectrometry. […]
Sample preparation for the quantification of metabolites by nuclear magnetic resonance (NMR) spectroscopy was performed as described previously.[13] […]

CHKA = CHKA (Homo sapiens, UniProt P35790); test: Competitive affinity-based chemoproteomics (UNC0965 matrix), PBMC cell extract; type: binding; parameters: endogenous in cells; details: 20 µM competitor
Sequence of CHKA (P35790 whole entry): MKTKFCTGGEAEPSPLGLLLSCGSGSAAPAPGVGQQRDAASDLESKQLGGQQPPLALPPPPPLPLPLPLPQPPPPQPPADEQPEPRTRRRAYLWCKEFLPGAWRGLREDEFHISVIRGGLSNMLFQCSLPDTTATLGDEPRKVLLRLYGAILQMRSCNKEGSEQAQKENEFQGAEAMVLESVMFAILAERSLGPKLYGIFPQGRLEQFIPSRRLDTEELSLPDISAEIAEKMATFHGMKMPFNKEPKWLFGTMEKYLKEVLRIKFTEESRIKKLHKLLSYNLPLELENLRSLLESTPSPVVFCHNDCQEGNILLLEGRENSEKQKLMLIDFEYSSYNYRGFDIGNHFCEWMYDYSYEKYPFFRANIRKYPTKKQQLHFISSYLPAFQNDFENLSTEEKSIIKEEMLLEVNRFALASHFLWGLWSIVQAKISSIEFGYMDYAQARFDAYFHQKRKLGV
Description: described.[2] Lysates were precleared with bead slurry (100 μL) for 30 min at 4 °C and then treated with UNC0638 or UNC0737 (20 μM) or DMSO control for 30 min at 4 °C followed by incubation with affinity matrix for 2 h at 4 °C. Affinity matrices were washed with buffer A (5 mL) and proteins eluted with 100 μL of 2x Laemmli sample buffer, 100 mM DTT, in PBS and heating for 10 min at 90 °C.
Eluents (70 µL) were diluted in 0.1 M Tris (pH 7.8) to 200 µL, reduced with 5 mM DTT for 30 min at RT, and alkylated with 20 mM iodoacetamide for 30 min at RT in the dark. Proteins were precipitated by sequential addition of MeOH (600 µL), CHCl3 (150 µL) and H2O (450 µL), pelleted (17,000 × g, 5 min), washed with further MeOH (2 × 600 µL), and re-pelleted. Air dried pellets were resuspended in 50 μL 6 M urea (pH 7.8) by vortexing and then diluted with 250 μL H2O before adding 1 µg trypsin for overnight incubation at 37 °C. The digests were acidified with FA (1% v/v final concentration), desalted using SOLA HRP SPE Cartridges (Thermo Fisher), eluted with 69% v/v MeCN, 0.1% v/v FA in H2O (600 μL) and dried in vacuo. Dried peptides were stored at -20 °C before resuspension in 2% v/v MeCN, 0.1% v/v FA in H2O (20 μL) for LC-MS/MS analysis.
LC-MS/MS Data Acquisition
Digested samples were analysed by nano-UPLC–MS/MS using a Dionex Ultimate 3000 nano UPLC fitted with an EASY spray column (75 μm × 500 mm, 2 μm particle size, Thermo Scientific), coupled to an Orbitrap Q Exactive instrument. […]
Raw data was processed using MaxQuant[3] version 2.0.1.0 and the reference complete human proteome FASTA file (UniProt, downloaded 05.08.21). Label Free Quantification (LFQ) and Match Between Runs were selected; Cysteine carbamidomethylation was selected as a fixed modification, and methionine oxidation and asparagine deamidation as variable modifications. Default settings for identification and quantification were used. […]
mode selected for both identification and quantification of proteins (razor peptides are uniquely assigned to protein groups and not to individual proteins).

T1 sequence (Q7Z2Y8 whole entry): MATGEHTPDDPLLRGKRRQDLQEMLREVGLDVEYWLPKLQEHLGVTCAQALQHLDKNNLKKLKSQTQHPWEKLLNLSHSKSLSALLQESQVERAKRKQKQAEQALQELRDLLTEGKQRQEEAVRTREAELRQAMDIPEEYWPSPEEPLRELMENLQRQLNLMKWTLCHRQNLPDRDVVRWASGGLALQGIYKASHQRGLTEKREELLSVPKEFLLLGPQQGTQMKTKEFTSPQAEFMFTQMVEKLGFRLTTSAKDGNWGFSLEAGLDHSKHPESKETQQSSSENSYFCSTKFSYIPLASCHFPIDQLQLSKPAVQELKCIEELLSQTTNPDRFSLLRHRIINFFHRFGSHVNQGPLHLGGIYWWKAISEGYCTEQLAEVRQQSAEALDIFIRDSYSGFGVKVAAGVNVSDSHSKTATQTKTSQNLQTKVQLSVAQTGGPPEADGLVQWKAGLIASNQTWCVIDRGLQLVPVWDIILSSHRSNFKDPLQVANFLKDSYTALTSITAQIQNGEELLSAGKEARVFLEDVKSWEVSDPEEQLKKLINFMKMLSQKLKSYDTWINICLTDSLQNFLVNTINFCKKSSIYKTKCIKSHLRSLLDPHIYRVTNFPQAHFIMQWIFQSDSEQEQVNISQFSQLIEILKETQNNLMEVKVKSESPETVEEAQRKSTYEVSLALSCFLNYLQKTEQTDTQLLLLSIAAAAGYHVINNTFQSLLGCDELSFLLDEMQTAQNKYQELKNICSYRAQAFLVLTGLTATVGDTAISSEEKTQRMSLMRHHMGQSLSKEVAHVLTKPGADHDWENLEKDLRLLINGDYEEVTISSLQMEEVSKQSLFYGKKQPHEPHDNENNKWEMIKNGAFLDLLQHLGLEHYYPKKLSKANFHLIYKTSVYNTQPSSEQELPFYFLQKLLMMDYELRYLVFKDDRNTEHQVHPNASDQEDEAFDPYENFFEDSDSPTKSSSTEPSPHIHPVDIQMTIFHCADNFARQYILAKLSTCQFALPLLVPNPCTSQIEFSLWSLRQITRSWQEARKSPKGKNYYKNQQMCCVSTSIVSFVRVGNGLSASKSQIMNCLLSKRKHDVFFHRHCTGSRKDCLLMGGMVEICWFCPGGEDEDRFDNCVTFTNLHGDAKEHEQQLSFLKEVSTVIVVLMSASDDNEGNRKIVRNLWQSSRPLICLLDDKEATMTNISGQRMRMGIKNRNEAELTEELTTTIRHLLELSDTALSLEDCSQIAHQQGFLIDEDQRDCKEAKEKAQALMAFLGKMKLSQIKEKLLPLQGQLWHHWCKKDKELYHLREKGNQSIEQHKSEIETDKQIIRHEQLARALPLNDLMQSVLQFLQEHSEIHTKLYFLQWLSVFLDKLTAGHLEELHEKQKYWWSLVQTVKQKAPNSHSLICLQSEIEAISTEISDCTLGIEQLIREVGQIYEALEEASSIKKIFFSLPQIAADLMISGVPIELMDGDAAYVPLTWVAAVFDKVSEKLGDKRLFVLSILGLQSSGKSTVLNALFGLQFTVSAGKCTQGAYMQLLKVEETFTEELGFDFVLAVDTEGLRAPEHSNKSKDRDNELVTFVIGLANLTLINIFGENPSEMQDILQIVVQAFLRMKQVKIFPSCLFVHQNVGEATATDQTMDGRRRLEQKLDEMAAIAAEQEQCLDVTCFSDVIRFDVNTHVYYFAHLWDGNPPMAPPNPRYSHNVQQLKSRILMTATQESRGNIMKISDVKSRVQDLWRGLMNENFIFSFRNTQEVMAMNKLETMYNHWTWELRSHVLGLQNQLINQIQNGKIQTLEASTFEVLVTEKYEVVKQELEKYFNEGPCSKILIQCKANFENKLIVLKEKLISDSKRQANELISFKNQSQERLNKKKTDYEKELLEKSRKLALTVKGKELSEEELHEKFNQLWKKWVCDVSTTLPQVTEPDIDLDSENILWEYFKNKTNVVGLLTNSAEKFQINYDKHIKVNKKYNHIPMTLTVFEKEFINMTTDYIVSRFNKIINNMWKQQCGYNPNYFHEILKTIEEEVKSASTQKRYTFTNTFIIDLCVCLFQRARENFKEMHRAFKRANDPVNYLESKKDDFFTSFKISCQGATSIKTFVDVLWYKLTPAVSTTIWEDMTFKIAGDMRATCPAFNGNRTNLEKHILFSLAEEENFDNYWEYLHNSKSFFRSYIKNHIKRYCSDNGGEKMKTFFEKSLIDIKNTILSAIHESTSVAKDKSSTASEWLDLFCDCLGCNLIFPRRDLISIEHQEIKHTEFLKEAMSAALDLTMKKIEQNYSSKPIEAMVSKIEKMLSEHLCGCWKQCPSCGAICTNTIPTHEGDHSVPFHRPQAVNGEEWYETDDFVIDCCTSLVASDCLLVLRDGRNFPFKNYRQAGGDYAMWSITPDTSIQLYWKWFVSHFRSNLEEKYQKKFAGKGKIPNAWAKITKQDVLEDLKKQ

Structure (SMILES) | effect_CETSA_Intact (PISA amplitude), GVINP1 (GVINP1) | competition for CHKA binding to affinity matrix (CHKA)
COc1cc2c(NC3CCN(C(C)C)CC3)nc(C3CCCCC3)nc2cc1OCCCN1CCCC1 [UNC0638] | 0.358 | sole shared target
COc1cc2c(N(C)C3CCN(C(C)C)CC3)nc(C3CCCCC3)nc2cc1OCCCN1CCCC1 [UNC0737] | 0.871 | sole shared target; also recorded: reduced stronger
